Like-named read-outs stand apart in the source and are kept apart here.
Legend:
[1] = tested on: circulating levels of luteinizing hormone (LH); test: Castrated male rat model, circulating luteinizing hormone (LH); assay type: in vivo; conditions: single intravenous 10 mg/kg dose, castrated male Sprague-Dawley rats, 1 hour after dosing
From the text: Castrated Male Rat Model to Assess the Effect of Compound of Invention on Circulating Levels of Luteinizing Hormone (LH).
In humans and rodents, castration is well-precedented to permit heightened, persistent GnRH signaling and consequent elevation of circulating LH. Thus, a castrated rat model is used to provide a broad index for measurement of LH inhibition as a marker of test compound inhibition of the GnRH signaling pathway.
Castrated adult male Sprague-Dawley (SD) rats (150-175 g) were purchased from Janvier (St Berthevin, France). […] The animals were allowed 2 weeks of postoperative recovery prior to study. Animals were handled on a daily basis. Standard diet and tap water were provided ad libitum. Animal cage litters were changed once a week. On the study day, animals were acclimated to the procedure room for a period of one hour prior to the initiation of the experiment.
Compounds of the invention were formulated as apyrogen water with 90 g/L (2-Hydroxypropyl)-β-CycloDextrin.
After basal sampling (T0) a single dose of compounds of the invention or vehicle was administrated intravenously to rats. Blood was then collected at 60 min post dosing. Blood samples were obtained via tail vein bleed, drawn into EDTA-containing tubes and centrifuged immediately. […] Serum LH levels were determined using radioimmunoassay kit from RIAZEN—Rat LH, Zentech (Liège, Belgium). […]

[2] = tested on: circulating levels of testosterone; test: Gonad-intact adult male rat, circulating testosterone; assay type: in vivo; conditions: single intravenous 50 mg/kg dose, gonad-intact male Sprague-Dawley rats, over the 210 minute test period (AUC)
human NK1 receptor = human NK1 receptor (Homo sapiens (Human), UniProt P25103); test: Human NK1 [3H] substance P binding assay (selectivity); conditions: read-out: NK1 Ki; CHO membranes, 2 nM [3H] substance P
human NK2 receptor = human NK2 receptor (Homo sapiens (Human), UniProt P21452); test: Human NK2 [125I]-Neurokinin A binding assay (selectivity); conditions: read-out: NK2 Ki; CHO membranes, 0.1 nM [125I]-Neurokinin A
hERG channel = hERG channel (Homo sapiens (Human), UniProt Q12809); test: hERG inhibition assay (manual patch-clamp, HEK 293 cells)
human NK-3 receptor [3] = biological target: T1, human NK-3 receptor (Homo sapiens (Human), UniProt P29371); test: Aequorin functional assay with human NK-3 receptor (antagonist testing vs NKA); assay type: cell-based; conditions: inhibition of NKA (3 nM, EC80) response, CHO cells expressing human NK3 receptor and apoaequorin
human NK-3 receptor [4] = biological target: T1, human NK-3 receptor; test: 3H-SB222200 binding competition assay with human NK-3 receptor
Protocol: ^3H-SB222200 Binding Competition Assay with Human NK-3 Receptor
The membranes were incubated with 5 nM ^3H-SB222200(ARC) in a HEPES 25 mM/NaCl 0.1M/CaCl2 1 mM/MgCl2 5 Mm/BSA 0.5%/Saponin 10 μg/ml buffer at pH 7.4 and various concentrations of compounds of the invention. The amount of ^3H-SB222200 bound to the receptor was determined after filtration by the quantification of membrane associated radioactivity using the TopCount-NXT reader (Packard).

[5] = Table 6, membranes of CHO cells expressing human NK3 receptor, 5 nM 3H-SB222200, read-out: Ki
[6] = Table 7, human NK-3 receptor, read-out: NK3 Ki

human NK2 receptor, sequence (P21452 whole entry): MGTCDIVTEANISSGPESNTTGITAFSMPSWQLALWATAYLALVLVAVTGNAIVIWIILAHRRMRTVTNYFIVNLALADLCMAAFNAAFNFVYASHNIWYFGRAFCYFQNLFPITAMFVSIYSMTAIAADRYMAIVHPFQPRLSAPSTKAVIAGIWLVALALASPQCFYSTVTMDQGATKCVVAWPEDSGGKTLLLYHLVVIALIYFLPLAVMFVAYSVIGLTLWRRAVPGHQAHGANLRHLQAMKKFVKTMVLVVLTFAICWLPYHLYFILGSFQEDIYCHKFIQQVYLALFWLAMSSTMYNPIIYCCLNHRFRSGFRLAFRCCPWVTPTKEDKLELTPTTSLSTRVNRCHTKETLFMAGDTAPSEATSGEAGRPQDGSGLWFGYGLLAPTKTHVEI
human NK1 receptor, sequence (P25103 whole entry): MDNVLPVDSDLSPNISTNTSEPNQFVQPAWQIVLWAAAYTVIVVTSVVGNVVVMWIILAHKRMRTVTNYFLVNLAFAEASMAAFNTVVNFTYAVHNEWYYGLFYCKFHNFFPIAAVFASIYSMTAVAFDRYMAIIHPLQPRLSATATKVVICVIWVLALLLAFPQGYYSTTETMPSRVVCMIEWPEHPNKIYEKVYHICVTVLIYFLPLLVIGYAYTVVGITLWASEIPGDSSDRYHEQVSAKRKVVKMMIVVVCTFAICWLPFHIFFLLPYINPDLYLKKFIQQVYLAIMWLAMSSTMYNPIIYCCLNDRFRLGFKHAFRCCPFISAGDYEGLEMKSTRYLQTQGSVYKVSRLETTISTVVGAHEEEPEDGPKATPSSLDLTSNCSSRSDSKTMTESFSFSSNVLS
T1 sequence (P29371 whole entry): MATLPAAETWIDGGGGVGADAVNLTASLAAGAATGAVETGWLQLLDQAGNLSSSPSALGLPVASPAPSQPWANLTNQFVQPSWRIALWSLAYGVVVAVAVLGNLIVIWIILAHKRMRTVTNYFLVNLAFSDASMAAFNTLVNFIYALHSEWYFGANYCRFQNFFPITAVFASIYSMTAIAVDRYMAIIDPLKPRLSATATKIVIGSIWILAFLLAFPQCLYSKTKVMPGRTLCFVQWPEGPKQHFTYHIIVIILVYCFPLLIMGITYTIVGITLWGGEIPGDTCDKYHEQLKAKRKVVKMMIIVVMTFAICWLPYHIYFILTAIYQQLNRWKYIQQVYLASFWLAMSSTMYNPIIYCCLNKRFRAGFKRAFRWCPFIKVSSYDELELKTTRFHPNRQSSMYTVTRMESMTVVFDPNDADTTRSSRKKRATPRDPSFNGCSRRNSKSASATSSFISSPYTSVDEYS
hERG channel, sequence (Q12809 whole entry): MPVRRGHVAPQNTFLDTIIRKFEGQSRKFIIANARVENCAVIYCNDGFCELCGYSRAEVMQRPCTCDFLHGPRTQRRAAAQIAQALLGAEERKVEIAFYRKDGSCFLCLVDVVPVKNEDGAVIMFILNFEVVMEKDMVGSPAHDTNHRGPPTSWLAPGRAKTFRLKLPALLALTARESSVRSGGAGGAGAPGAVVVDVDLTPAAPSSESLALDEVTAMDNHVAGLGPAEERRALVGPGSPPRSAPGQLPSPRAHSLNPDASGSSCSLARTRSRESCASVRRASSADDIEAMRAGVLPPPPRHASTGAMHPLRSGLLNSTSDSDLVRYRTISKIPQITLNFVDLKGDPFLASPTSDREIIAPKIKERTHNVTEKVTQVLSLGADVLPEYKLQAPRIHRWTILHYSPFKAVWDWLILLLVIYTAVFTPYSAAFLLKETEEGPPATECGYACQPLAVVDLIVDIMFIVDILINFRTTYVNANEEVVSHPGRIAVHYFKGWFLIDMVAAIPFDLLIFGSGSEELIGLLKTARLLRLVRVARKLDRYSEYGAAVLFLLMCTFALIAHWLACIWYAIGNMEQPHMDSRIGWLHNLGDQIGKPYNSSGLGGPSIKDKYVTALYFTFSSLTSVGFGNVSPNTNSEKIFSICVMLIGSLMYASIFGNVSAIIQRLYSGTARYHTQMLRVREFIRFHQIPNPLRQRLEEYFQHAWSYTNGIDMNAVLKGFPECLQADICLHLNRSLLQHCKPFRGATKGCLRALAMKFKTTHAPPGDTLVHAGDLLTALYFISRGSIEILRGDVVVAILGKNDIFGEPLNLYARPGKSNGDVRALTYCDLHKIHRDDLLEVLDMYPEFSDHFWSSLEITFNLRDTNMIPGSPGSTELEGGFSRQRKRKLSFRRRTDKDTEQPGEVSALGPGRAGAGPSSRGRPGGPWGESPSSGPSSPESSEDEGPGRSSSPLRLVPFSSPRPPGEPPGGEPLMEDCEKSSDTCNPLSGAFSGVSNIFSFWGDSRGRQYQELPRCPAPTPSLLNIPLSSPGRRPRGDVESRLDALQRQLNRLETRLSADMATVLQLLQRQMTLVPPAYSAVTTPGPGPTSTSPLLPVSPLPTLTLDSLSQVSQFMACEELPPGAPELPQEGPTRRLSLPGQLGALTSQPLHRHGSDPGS

Row | SMILES | circulating LH levels [1] | plasma testosterone levels [2] | Ki (human NK1 receptor) [nM] | Ki (human NK2 receptor) [nM] | IC50 (hERG channel) [nM] | IC50 (human NK-3 receptor [3]) [nM] | Ki (human NK-3 receptor [4]; [5]) [nM] | Ki (human NK-3 receptor [4]; [6]) [nM]
1 | Cc1nc(-c2nnc3n2CCN(C(=O)c2ccc(-c4cccs4)cc2)[C@@H]3C)cs1 [Compound 1, (R)-(8-methyl-3-(2-methylthiazol-4-yl)-5,6-dihydro-[1,2,4]triazolo[4,3-a]pyrazin-7(8H)-yl) (4-(thiophen-2-yl)phenyl)methanone] | significantly suppressed circulating LH levels | significantly suppressed plasma testosterone levels | 12700 | 14000 | > 30000 |  |  | 
2 | Cc1nc(-c2nnc3n2CCN(C(=O)c2ccc(-c4cccs4)cc2)C3)cs1 [Compound 3, (3-(2-methylthiazol-4-yl)-5,6-dihydro-[1,2,4]triazolo[4,3-a]pyrazin-7(8H)-yl)(4-(thiophen-2-yl)phenyl)methanone] |  |  | > 10000 | > 10000 | 26000 | 83 | 83 | 83
3 | O=C(c1ccc(-c2cccs2)cc1)N1CCn2c(nnc2-c2csc(C(F)(F)F)n2)C1 [Compound 4, (4-(thiophen-2-yl)phenyl)(3-(2-(trifluoromethyl)thiazol-4-yl)-5,6-dihydro-[1,2,4]triazolo[4,3-a]pyrazin-7(8H)-yl)methanone] |  |  |  |  | > 30000 | 50 | 56 | 
4 | Cc1nc(-c2nnc3n2CCN(C(=O)c2ccc(-c4cccs4)cc2)[C@@H]3C)co1 [Compound 11, (R)-(8-methyl-3-(2-methyloxazol-4-yl)-5,6-dihydro-[1,2,4]triazolo[4,3-a]pyrazin-7(8H)-yl)(4-(thiophen-2-yl)phenyl)methanone] |  |  | > 10000 | > 10000 | > 30000 | 34 | 44 | 44
5 | Cc1csc(-c2nnc3n2CCN(C(=O)c2ccc(-c4cccs4)cc2)[C@@H]3C)n1 [Compound 19, (R)-(8-methyl-3-(4-methylthiazol-2-yl)-5,6-dihydro-[1,2,4]triazolo[4,3-a]pyrazin-7(8H)-yl)(4-(thiophen-2-yl)phenyl)methanone] | significantly suppressed circulating LH levels |  |  |  |  | 8 | 6 | 
6 | Cc1nc(-c2nnc3n2CCN(C(=O)c2ccc(-c4cccs4)cc2)[C@@H]3C)sc1C [Compound 22, (R)-(3-(4,5-dimethylthiazol-2-yl)-8-methyl-5,6-dihydro-[1,2,4]triazolo[4,3-a]pyrazin-7(8H)-yl)(4-(thiophen-2-yl)phenyl)methanone] |  |  |  |  | 12000 | 21 | 21 | 
7 | C[C@@H]1c2nnc(-c3cccc(O)n3)n2CCN1C(=O)c1ccc(-c2cccs2)cc1 [Compound 31, (R)-(3-(6-hydroxypyridin-2-yl)-8-methyl-5,6-dihydro-[1,2,4]triazolo[4,3-a]pyrazin-7(8H)-yl)(4-(thiophen-2-yl)phenyl)methanone] |  |  | > 10000 | > 10000 | 20000 | 18 | 22 | 22

From patent publication US9475814B2, “Chiral N-acyl-5,6,7(8-substituted)-tetrahydro-[1,2,4]triazolo[4,3-a]pyrazines as selective NK-3 receptor antagonists, pharmaceutical composition, methods for use in NK-3 receptor mediated disorders and chiral synthesis thereof” (Euroscreen S.A., priority 2011, dated 2016)
